ChEMBL document CHEMBL1201862, “PubChem BioAssay data set” (2004)
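Assay format: 96-well plates, 48-hour exposure. Abbreviation: GI50, concentration required for 50% inhibition of growth.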 Active and inactive are the calls of the source. Rule as the data show it: active = GI50 up to about 1.1 µM and inactive = higher.

What was measured:
Assay in all cases: NCI-60 cell line screen, 48 h
786-0 = tested on: 786-0
A498 = tested on: A498
A549 = tested on: A549
ACHN = tested on: ACHN
BT-549 = tested on: BT-549
CAKI-1 = tested on: CAKI-1
CCRF-CEM = tested on: CCRF-CEM
COLO 205 = tested on: COLO 205
DU-145 = tested on: DU-145
EKVX = tested on: EKVX
HCC 2998 = tested on: HCC 2998
HCT-116 = tested on: HCT-116
HCT-15 = tested on: HCT-15
HL-60 = tested on: HL-60
HOP-62 = tested on: HOP-62
HOP-92 = tested on: HOP-92
HT-29 = tested on: HT-29
Hs-578T = tested on: Hs-578T
IGROV-1 = tested on: IGROV-1
K562 = tested on: K562
KM12 = tested on: KM12
LOX IMVI = tested on: LOX IMVI
M14 = tested on: M14
MCF7 = tested on: MCF7
MDA-MB-231 = tested on: MDA-MB-231
MDA-MB-435 = tested on: MDA-MB-435
MDA-N = tested on: MDA-N
MOLT-4 = tested on: MOLT-4
Malme-3M = tested on: Malme-3M
NCI-H23 = tested on: NCI-H23
NCI-H460 = tested on: NCI-H460
NCI-H522 = tested on: NCI-H522
NCI/ADR-RES = tested on: NCI/ADR-RES
OVCAR-3 = tested on: OVCAR-3
OVCAR-4 = tested on: OVCAR-4
OVCAR-5 = tested on: OVCAR-5
OVCAR-8 = tested on: OVCAR-8
PC-3 = tested on: PC-3
RPMI-8226 = tested on: RPMI-8226
RXF 393 = tested on: RXF 393
SF-268 = tested on: SF-268
SF-295 = tested on: SF-295
SF-539 = tested on: SF-539
SK-MEL-28 = tested on: SK-MEL-28
SK-MEL-2 = tested on: SK-MEL-2
SK-MEL-5 = tested on: SK-MEL-5
SK-OV-3 = tested on: SK-OV-3
SN12C = tested on: SN12C
SNB-19 = tested on: SNB-19
SNB-75 = tested on: SNB-75
SR = tested on: SR
SW-620 = tested on: SW-620
T47D = tested on: T47D
TK-10 = tested on: TK-10
U-251 = tested on: U-251
UACC-257 = tested on: UACC-257
UACC-62 = tested on: UACC-62
UO-31 = tested on: UO-31
NCI-H226 = tested on: NCI-H226

**Q.** `Cc1[nH]c2ccccc2c1/C=N/NC(=O)c1cccc(I)c1` was tested. Which GI50 (786-0) did it give?
**A.** Its GI50 is 20.7 µM (inactive).

**Q.** What about the GI50 (A498) of the same molecule?
**A.** Its GI50 is 18.4 µM (inactive).

**Q.** And the GI50 (A549)?
**A.** The GI50 was 29.2 µM (inactive).

**Q.** And the GI50 (ACHN)?
**A.** Its GI50 is 26.8 µM (inactive).

**Q.** What about the GI50 (BT-549) of the same molecule?
**A.** Its GI50 is 21.9 µM (inactive).

**Q.** What about the GI50 (CAKI-1) of the same molecule?
**A.** The GI50 was 18.2 µM (inactive).

**Q.** What about the GI50 (CCRF-CEM) of the same molecule?
**A.** Its GI50 is 26 µM (inactive).

**Q.** And the GI50 (COLO 205)?
**A.** The GI50 was 13.5 µM (inactive).

**Q.** And the GI50 (DU-145)?
**A.** The GI50 was 27.9 µM (inactive).

**Q.** What about the GI50 (EKVX) of the same molecule?
**A.** The GI50 was 12.2 µM (inactive).

**Q.** What about the GI50 (HCC 2998) of the same molecule?
**A.** The GI50 was 18.6 µM (inactive).

**Q.** And the GI50 (HCT-116)?
**A.** The GI50 was 22.9 µM (inactive).

**Q.** And the GI50 (HCT-15)?
**A.** The GI50 was 23.7 µM.

**Q.** What about the GI50 (HL-60) of the same molecule?
**A.** The GI50 was 26.9 µM (inactive).

**Q.** And the GI50 (HOP-62)?
**A.** Its GI50 is 17.6 µM (inactive).

**Q.** And the GI50 (HOP-92)?
**A.** The GI50 was 14.4 µM (inactive).

**Q.** And the GI50 (HT-29)?
**A.** Its GI50 is 15.7 µM (inactive).

**Q.** What about the GI50 (Hs-578T) of the same molecule?
**A.** Its GI50 is 33.1 µM (inactive).

**Q.** What about the GI50 (IGROV-1) of the same molecule?
**A.** The GI50 was 17.7 µM (inactive).

**Q.** And the GI50 (K562)?
**A.** The GI50 was 24.5 µM (inactive).

**Q.** What about the GI50 (KM12) of the same molecule?
**A.** The GI50 was 16.3 µM (inactive).

**Q.** And the GI50 (LOX IMVI)?
**A.** Its GI50 is 15.7 µM (inactive).

**Q.** What about the GI50 (M14) of the same molecule?
**A.** Its GI50 is 15 µM (inactive).

**Q.** And the GI50 (MCF7)?
**A.** Its GI50 is 19.5 µM (inactive).

**Q.** And the GI50 (MDA-MB-231)?
**A.** Its GI50 is 16.7 µM (inactive).

**Q.** What about the GI50 (MDA-MB-435) of the same molecule?
**A.** Its GI50 is 17.3 µM (inactive).

**Q.** And the GI50 (MDA-N)?
**A.** Its GI50 is 22.1 µM (inactive).

**Q.** What about the GI50 (MOLT-4) of the same molecule?
**A.** The GI50 was 23.3 µM (inactive).

**Q.** What about the GI50 (Malme-3M) of the same molecule?
**A.** Its GI50 is 24.2 µM (inactive).

**Q.** And the GI50 (NCI-H23)?
**A.** Its GI50 is 19.1 µM (inactive).

**Q.** What about the GI50 (NCI-H460) of the same molecule?
**A.** The GI50 was 17.1 µM (inactive).

**Q.** And the GI50 (NCI-H522)?
**A.** Its GI50 is 24.3 µM (inactive).

**Q.** And the GI50 (NCI/ADR-RES)?
**A.** The GI50 was 20.3 µM (inactive).

**Q.** What about the GI50 (OVCAR-3) of the same molecule?
**A.** Its GI50 is 20.7 µM (inactive).

**Q.** What about the GI50 (OVCAR-4) of the same molecule?
**A.** The GI50 was 16.1 µM (inactive).

**Q.** And the GI50 (OVCAR-5)?
**A.** The GI50 was 25.1 µM (inactive).

**Q.** And the GI50 (OVCAR-8)?
**A.** The GI50 was 26.5 µM (inactive).

**Q.** What about the GI50 (PC-3) of the same molecule?
**A.** Its GI50 is 23 µM (inactive).

**Q.** And the GI50 (RPMI-8226)?
**A.** The GI50 was 19.9 µM (inactive).

**Q.** What about the GI50 (RXF 393) of the same molecule?
**A.** The GI50 was 17.5 µM (inactive).

**Q.** What about the GI50 (SF-268) of the same molecule?
**A.** Its GI50 is 40.6 µM (inactive).

**Q.** And the GI50 (SF-295)?
**A.** The GI50 was 18.7 µM (inactive).

**Q.** What about the GI50 (SF-539) of the same molecule?
**A.** Its GI50 is 18.8 µM (inactive).

**Q.** What about the GI50 (SK-MEL-28) of the same molecule?
**A.** Its GI50 is 22.7 µM (inactive).

**Q.** And the GI50 (SK-MEL-2)?
**A.** The GI50 was 19.2 µM (inactive).

**Q.** And the GI50 (SK-MEL-5)?
**A.** The GI50 was 15.7 µM (inactive).

**Q.** And the GI50 (SK-OV-3)?
**A.** Its GI50 is 32.2 µM (inactive).

**Q.** What about the GI50 (SN12C) of the same molecule?
**A.** Its GI50 is 30.2 µM (inactive).

**Q.** What about the GI50 (SNB-19) of the same molecule?
**A.** The GI50 was 29 µM (inactive).

**Q.** What about the GI50 (SNB-75) of the same molecule?
**A.** The GI50 was 22.4 µM (inactive).

**Q.** What about the GI50 (SR) of the same molecule?
**A.** The GI50 was 17.9 µM (inactive).

**Q.** And the GI50 (SW-620)?
**A.** The GI50 was 29 µM (inactive).

**Q.** What about the GI50 (T47D) of the same molecule?
**A.** Its GI50 is 14.8 µM (inactive).

**Q.** And the GI50 (TK-10)?
**A.** The GI50 was 26.7 µM (inactive).

**Q.** What about the GI50 (U-251) of the same molecule?
**A.** The GI50 was 21.5 µM (inactive).

**Q.** And the GI50 (UACC-257)?
**A.** Its GI50 is 23.7 µM (inactive).

**Q.** And the GI50 (UACC-62)?
**A.** The GI50 was 17.8 µM (inactive).

**Q.** And the GI50 (UO-31)?
**A.** The GI50 was 20.7 µM (inactive).

**Q.** What does the source list for `O=C1C(c2c(O)[nH]c3ccc(Br)cc23)=Nc2ccccc21`?
**A.** GI50 (786-0): 2.13 µM (inactive); GI50 (A498): 3.3 µM (inactive); GI50 (A549): 4.07 µM (inactive); GI50 (ACHN): 3.06 µM (inactive); GI50 (BT-549): 19.5 µM (inactive); GI50 (CAKI-1): 2.65 µM (inactive); GI50 (CCRF-CEM): 22.7 µM (inactive); GI50 (COLO 205): 5.65 µM (inactive); GI50 (DU-145): 6.81 µM (inactive); GI50 (EKVX): 2.93 µM (inactive); GI50 (HCC 2998): 3.79 µM (inactive); GI50 (HCT-116): 2.32 µM (inactive); GI50 (HCT-15): 5.41 µM; GI50 (HL-60): 96.2 µM (inactive); GI50 (HOP-62): 12.4 µM (inactive); GI50 (HOP-92): 16.6 µM (inactive); GI50 (HT-29): 4.28 µM (inactive); GI50 (Hs-578T): 12.9 µM (inactive); GI50 (IGROV-1): 0.562 µM (active); GI50 (K562): 5.62 µM (inactive); GI50 (KM12): 2.92 µM (inactive); GI50 (LOX IMVI): 8.55 µM (inactive); GI50 (M14): 11.3 µM (inactive); GI50 (MCF7): 1.76 µM (inactive); GI50 (MDA-MB-231): 15 µM (inactive); GI50 (MDA-MB-435): 6.9 µM (inactive); GI50 (MDA-N): 14 µM (inactive); GI50 (MOLT-4): 18.2 µM (inactive); GI50 (Malme-3M): 4.91 µM (inactive); GI50 (NCI-H226): 15.1 µM (inactive); GI50 (NCI-H23): 12.4 µM (inactive); GI50 (NCI-H460): 12.7 µM (inactive); GI50 (NCI-H522): 14.7 µM (inactive); GI50 (NCI/ADR-RES): 17.7 µM (inactive); GI50 (OVCAR-3): 10.6 µM (inactive); GI50 (OVCAR-4): 9.04 µM (inactive); GI50 (OVCAR-5): 11.9 µM (inactive); GI50 (OVCAR-8): 6.78 µM (inactive); GI50 (PC-3): 5 µM (inactive); GI50 (RPMI-8226): 8.79 µM (inactive); GI50 (RXF 393): 2.39 µM (inactive); GI50 (SF-268): 9.62 µM (inactive); GI50 (SF-295): 15.5 µM (inactive); GI50 (SK-MEL-28): 29 µM (inactive); GI50 (SK-MEL-2): 11.9 µM (inactive); GI50 (SK-MEL-5): 4.01 µM (inactive); GI50 (SK-OV-3): 13 µM (inactive); GI50 (SN12C): 28 µM (inactive); GI50 (SNB-19): 13.2 µM (inactive); GI50 (SNB-75): 11.2 µM (inactive); GI50 (SR): 6.73 µM (inactive); GI50 (SW-620): 12.7 µM (inactive); GI50 (T47D): 8.63 µM (inactive); GI50 (TK-10): 13.4 µM (inactive); GI50 (U-251): 12.8 µM (inactive); GI50 (UACC-257): 24.2 µM (inactive); GI50 (UACC-62): 12.2 µM (inactive); GI50 (UO-31): 2.74 µM (inactive)
